Reference: PubChem BioAssay AID248 (DTP/NCI, 2004)
Values joined by “and” are separate entries in the source; they are usually repeats but may differ in a detail not shown here. Equal values may be shown once. Inconclusive results and toxic doses are left out. Rule as the data show it: active = T/C of 150% or more; inactive = T/C below 125%.

System: L1210 leukemia ip in BDF1 mice, survival T/C
Test: NCI In Vivo Anticancer Drug Screen. Data for tumor model L1210 Leukemia (intraperitoneal) in B6D2F1 (BDF1) mice
Conditions: endpoint: mean survival time, higher = longer survival
Outline: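 Tumor was transplanted into mice, which were then dosed with test compound or vehicle alone. Survival was recorded for each group, and the treated figure was expressed relative to the control figure.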

[1] = dose: 100.0 mg/kg/injection, schedule: Q01DX009 (ip), vehicle: saline with Tween-80
[2] = dose: 100.0 mg/kg/injection, schedule: Q04DX003 (ip), vehicle: saline with Tween-80
[3] = dose: 200.0 mg/kg/injection, schedule: Q01DX009 (ip), vehicle: saline with Tween-80
[4] = dose: 200.0 mg/kg/injection, schedule: Q04DX003 (ip), vehicle: saline with Tween-80
[5] = dose: 400.0 mg/kg/injection, schedule: Q01DX009 (ip), vehicle: saline with Tween-80
[6] = dose: 400.0 mg/kg/injection, schedule: Q04DX003 (ip), vehicle: saline with Tween-80
[7] = dose: 100.0 mg/kg/injection, schedule: Q01DX001 (ip), vehicle: saline
[8] = dose: 100.0 mg/kg/injection, schedule: Q04DX003 (ip), vehicle: Klucel (hydroxypropylcellulose) (HPC)
[9] = dose: 200.0 mg/kg/injection, schedule: Q04DX003 (ip), vehicle: Klucel (hydroxypropylcellulose) (HPC)
[10] = dose: 400.0 mg/kg/injection, schedule: Q04DX003 (ip), vehicle: Klucel (hydroxypropylcellulose) (HPC)
[11] = dose: 100.0 mg/kg/injection, schedule: Q04DX002 (ip), vehicle: saline with Tween-80
[12] = dose: 200.0 mg/kg/injection, schedule: Q04DX002 (ip), vehicle: saline with Tween-80
[13] = dose: 400.0 mg/kg/injection, schedule: Q04DX002 (ip), vehicle: saline with Tween-80
[14] = dose: 200.0 mg/kg/injection, schedule: Q01DX001 (ip), vehicle: saline
[15] = dose: 400.0 mg/kg/injection, schedule: Q01DX001 (ip), vehicle: saline
[16] = dose: 100.0 mg/kg/injection, schedule: Q01DX001 (ip), vehicle: Klucel (hydroxypropylcellulose) (HPC)
[17] = dose: 100.0 mg/kg/injection, schedule: Q01DX009 (ip), vehicle: Klucel (hydroxypropylcellulose) (HPC)
[18] = dose: 200.0 mg/kg/injection, schedule: Q01DX001 (ip), vehicle: Klucel (hydroxypropylcellulose) (HPC)
[19] = dose: 200.0 mg/kg/injection, schedule: Q01DX009 (ip), vehicle: Klucel (hydroxypropylcellulose) (HPC)
[20] = dose: 400.0 mg/kg/injection, schedule: Q01DX009 (ip), vehicle: Klucel (hydroxypropylcellulose) (HPC)

Measured: T/C

O=C(NC(Cc1cnc[nH]1)C(=O)O)OCc1ccccc1 (configuration not stated)
inactive: [1] 100 % of control | [2] 100 % of control | [3] 100 % of control | [4] 98 % of control | [5] 96 % of control | [6] 101 % of control

CCCCN(CCCC)CC(O)c1ccnc2cc3c(cc12)OCO3 (configuration not stated)
inactive: dose: 25.0 mg/kg/injection, schedule: Q01DX009 (ip), vehicle: other 102 % of control | dose: 50.0 mg/kg/injection, schedule: Q01DX009 (ip), vehicle: other 110 % of control | [7] 97 % of control | dose: 100.0 mg/kg/injection, schedule: Q01DX009 (ip), vehicle: other 111 % of control

CCS(=O)(=O)/C=C/c1ccc(Cl)c(Cl)c1
inactive: [8] 110 % of control | [9] 97 % of control | [10] 107 % of control

CSC1=Nc2c(C)nn(C)c2C(c2ccccc2)S1 (configuration not stated)
inactive: [11] 100 % of control and 112 % of control | [2] 97 % of control and 101 % of control | [12] 104 % of control and 89 % of control | [4] 96 % of control and 100 % of control | [13] 94 % of control and 104 % of control | [6] 96 % of control and 100 % of control

C#C[C@]1(O)CC[C@H]2[C@@H]3CCc4cc(O)ccc4[C@H]3CC[C@@]21C
inactive: dose: 62.5 mg/kg/injection, schedule: Q04DX003 (sc), vehicle: steriod suspending solution 96 % of control | dose: 125.0 mg/kg/injection, schedule: Q04DX003 (sc), vehicle: steriod suspending solution 100 % of control | dose: 250.0 mg/kg/injection, schedule: Q04DX003 (sc), vehicle: steriod suspending solution 97 % of control | dose: 500.0 mg/kg/injection, schedule: Q04DX003 (sc), vehicle: steriod suspending solution 99 % of control

O=C1c2cccc(O)c2C(=O)c2c(O)cc(CO)cc21
inactive: [7] 98 % of control | [14] 95 % of control | [15] 95 % of control

CCOC(=O)CCC(NC(=O)OCc1ccccc1)C(=O)O (configuration not stated)
inactive: [8] 91 % of control | [9] 89 % of control

NC(=S)N/N=C1\CC(c2ccccc2)Oc2ccccc21 (configuration not stated)
inactive: [7] 88 % of control

NC(=O)OCCOCCOC(N)=O
inactive: [2] 98 % of control | [4] 98 % of control | [6] 101 % of control

O=C1Cc2cccc3c2C(C1)CN3C(=O)c1ccccc1 (configuration not stated)
inactive: [1] 90 % of control | [2] 100 % of control | [3] 88 % of control | [4] 94 % of control | [5] 97 % of control | [6] 95 % of control

O=C(/C=C/C(=O)Oc1ccc(Cl)cc1)Oc1ccc(Cl)cc1
inactive: [16] 96 % of control | [17] 102 % of control | [8] 97 % of control | [18] 101 % of control | [19] 102 % of control | [9] 108 % of control | dose: 400.0 mg/kg/injection, schedule: Q01DX001 (ip), vehicle: Klucel (hydroxypropylcellulose) (HPC) 99 % of control | [20] 100 % of control | [10] 107 % of control

NC(=O)Nc1ncn[nH]1
inactive: [11] 95 % of control | [12] 95 % of control | [13] 95 % of control

COc1ccc(NC(=O)C(Br)C(Br)c2ccccc2)c(Cl)c1 (configuration not stated)
inactive: [17] 102 % of control | [19] 97 % of control | [20] 96 % of control

CCC([NH-])=O.CCC([NH-])=O.[Pt+2]
inactive: dose: 100.0 mg/kg/injection, schedule: Q01DX009 (ip), vehicle: water 107 % of control | dose: 100.0 mg/kg/injection, schedule: Q04DX003 (ip), vehicle: water 101 % of control | dose: 200.0 mg/kg/injection, schedule: Q01DX009 (ip), vehicle: water 106 % of control | dose: 200.0 mg/kg/injection, schedule: Q04DX003 (ip), vehicle: water 108 % of control | dose: 400.0 mg/kg/injection, schedule: Q04DX003 (ip), vehicle: water 110 % of control

CN1C2CCC1CC(OC1c3ccccc3CCc3ccccc31)C2 (configuration not stated)
inactive: dose: 6.25 mg/kg/injection, schedule: Q01DX009 (ip), vehicle: saline 105 % of control | dose: 12.5 mg/kg/injection, schedule: Q01DX009 (ip), vehicle: saline 104 % of control | dose: 25.0 mg/kg/injection, schedule: Q01DX009 (ip), vehicle: saline 101 % of control | dose: 50.0 mg/kg/injection, schedule: Q01DX009 (ip), vehicle: saline 101 % of control

Nc1ccc(O)cc1
inactive: dose: 12.5 mg/kg/injection, schedule: Q04DX003 (ip), vehicle: saline 92 % of control | dose: 25.0 mg/kg/injection, schedule: Q04DX003 (ip), vehicle: saline 95 % of control | dose: 35.0 mg/kg/injection, schedule: Q01DX Z (ip), vehicle: acid diluted with saline 92 % of control | dose: 35.0 mg/kg/injection, schedule: Q01DX Z (ip), vehicle: other 97 % of control | dose: 40.0 mg/kg/injection, schedule: Q01DX Z (ip), vehicle: methylcellulose (MC) 113 % of control | dose: 53.0 mg/kg/injection, schedule: Q01DX010 (sc), vehicle: saline 94 % of control | dose: 53.0 mg/kg/injection, schedule: Q01DX Z (ip), vehicle: acid diluted with saline 104 % of control | dose: 53.0 mg/kg/injection, schedule: Q01DX Z (ip), vehicle: other 103 % of control | dose: 53.0 mg/kg/injection, schedule: Q01DX Z (ip), vehicle: saline 98 % of control | dose: 80.0 mg/kg/injection, schedule: Q01DX Z (ip), vehicle: acid diluted with saline 108 % of control | dose: 80.0 mg/kg/injection, schedule: Q01DX Z (ip), vehicle: other 101 % of control | dose: 80.0 mg/kg/injection, schedule: Q01DX Z (ip), vehicle: saline 114 % of control | dose: 120.0 mg/kg/injection, schedule: Q01DX010 (sc), vehicle: saline 98 % of control | dose: 120.0 mg/kg/injection, schedule: Q01DX Z (ip), vehicle: acid diluted with saline 115 % of control | dose: 120.0 mg/kg/injection, schedule: Q01DX Z (ip), vehicle: other 114 % of control | dose: 120.0 mg/kg/injection, schedule: Q01DX Z (ip), vehicle: saline 112 % of control | dose: 160.0 mg/kg/injection, schedule: Q01DX Z (oral), vehicle: methylcellulose (MC) 113 % of control | dose: 212.0 mg/kg/injection, schedule: Q01DX013 (oral), vehicle: saline 109 % of control | dose: 320.0 mg/kg/injection, schedule: Q01DX Z (ip), vehicle: methylcellulose (MC) 107 % of control | dose: 320.0 mg/kg/injection, schedule: Q01DX Z (oral), vehicle: methylcellulose (MC) 108 % of control

CC[C@@H](C(=O)[C@@H](C)[C@@H](O)[C@H](C)CCc1ccc(C)c(O)c1C(=O)O)[C@H]1O[C@](CC)([C@H]2CC[C@](O)(CC)[C@H](C)O2)C[C@@H]1C
inactive: dose: 3.12 mg/kg/injection, schedule: Q01DX009 (ip), vehicle: Klucel (hydroxypropylcellulose) (HPC) 93 % of control | dose: 6.25 mg/kg/injection, schedule: Q01DX009 (ip), vehicle: Klucel (hydroxypropylcellulose) (HPC) 96 % of control | dose: 12.5 mg/kg/injection, schedule: Q01DX009 (ip), vehicle: Klucel (hydroxypropylcellulose) (HPC) 94 % of control | dose: 25.0 mg/kg/injection, schedule: Q01DX009 (ip), vehicle: Klucel (hydroxypropylcellulose) (HPC) 94 % of control

CCCCCCCCCCC(=O)O
inactive: [16] 105 % of control | [18] 105 % of control | dose: 300.0 mg/kg/injection, schedule: Q01DX001 (ip), vehicle: Klucel (hydroxypropylcellulose) (HPC) 101 % of control

O=C1C(O)=C(Cl)C(=O)C(OC2=C(Cl)C(=O)C(OC3=C(Cl)C(=O)C(OC4=C(Cl)C(=O)C(Cl)=C(Cl)C4=O)=C(Cl)C3=O)=C(Cl)C2=O)=C1Cl
inactive: dose: 100.0 mg/kg/injection, schedule: Q04DX003 (ip), vehicle: saline 97 % of control | dose: 200.0 mg/kg/injection, schedule: Q04DX003 (ip), vehicle: saline 105 % of control

COc1cc(N)c2ncccc2c1Cl
inactive: [7] 104 % of control | [14] 104 % of control | [15] 101 % of control

COc1ccc(C2C3CC4C(OC(=O)C42)C3I)cc1 (configuration not stated)
inactive: [1] 97 % of control | [2] 95 % of control | [3] 98 % of control | [4] 95 % of control | [5] 88 % of control | [6] 87 % of control

COc1ccc2nc3cc(Cl)ccc3c(Nc3ccc(O)cc3)c2c1
inactive: [1] 91 % of control | [3] 86 % of control
